What follows are compounds tested against USP30 (Homo sapiens (Human), UniProt Q70CQ3) (assay: USP30 biochemical IC50 assay). Details: not given.
USP30, sequence (Q70CQ3 57-517): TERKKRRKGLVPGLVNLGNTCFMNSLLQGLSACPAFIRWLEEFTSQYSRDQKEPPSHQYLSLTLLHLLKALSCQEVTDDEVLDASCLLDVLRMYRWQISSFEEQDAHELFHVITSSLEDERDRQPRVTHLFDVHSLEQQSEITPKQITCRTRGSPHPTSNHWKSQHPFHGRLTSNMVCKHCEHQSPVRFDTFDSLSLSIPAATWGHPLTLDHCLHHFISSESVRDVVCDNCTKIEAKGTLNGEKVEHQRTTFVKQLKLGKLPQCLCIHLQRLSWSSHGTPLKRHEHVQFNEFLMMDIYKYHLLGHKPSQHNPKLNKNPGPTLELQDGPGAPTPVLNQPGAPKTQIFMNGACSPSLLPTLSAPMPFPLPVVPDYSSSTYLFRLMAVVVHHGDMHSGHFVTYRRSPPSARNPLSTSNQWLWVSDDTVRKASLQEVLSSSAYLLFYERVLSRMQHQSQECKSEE
Description: USP30 Biochemical IC50 Assay
Dilution plates were prepared at 21 times the final concentration (2100 μM for a final concentration of 100 μM) in 50% DMSO in a 96-well polypropylene V-bottom plate (Greiner #651201). A typical 8-point dilution series to be 100, 30, 10, 3, 1, 0.3, 0.1, 0.03 μM final. Reactions were performed in duplicate in black 384 well plates (small volume, Greiner 784076) in a final reaction volume of 21 μl. Either 1 μl of 50% DMSO or diluted compound was added to the plate. USP30 was diluted in reaction buffer (40 mM Tris, pH 7.5, 0.005% Tween 20, 0.5 mg/ml BSA, 5 mM beta-mercaptoethanol) to the equivalent of 0.05 μl/well and 10 μl of diluted USP30 was added to the compound. Enzyme and compound were incubated for 30 min at room temp. Reactions were initiated by the addition of 50 nM of TAMRA labelled peptide linked to ubiquitin via an iso-peptide bond as fluorescence polarisation substrate. Reactions were read immediately after addition of substrate and following a 2 hr incubation at room temperature. Readings were performed on a Pherastar Plus (BMG Labtech). λ Excitation 540 nm; λ Emission 590 nm.
For `N#CN1CCC(CNC(=O)c2nn(Cc3ccc(Cl)cc3Cl)c3ccccc23)C1` (centres unmarked) [Example 28, N-((1-Cyanopyrrolidin-3-yl)methyl)-1-(2,4-dichlorobenzyl)-1H-indazole-3-carboxamide], the IC50 was < 100 nM. Work on `N#CN1CCC(CNC(=O)c2nn(Cc3ccccc3)c3ccccc23)C1` (centres unmarked) [Example 29, 1-Benzyl-N-((1-cyanopyrrolidin-3-yl)methyl)-1H-indazole-3-carboxamide] yielded an IC50 of 1000 to 10000 nM.

Same assay, conditions: fluorescence polarisation, TAMRA labelled peptide linked to ubiquitin; 30 min pre-incubation, 2 hr read; read-out: IC50 range
`CN1C(=O)COc2ccc(C(=O)NCC3CCN(C#N)C3)cc21` (centres unmarked) [Example 23, N-((1-Cyanopyrrolidin-3-yl)methyl)-4-methyl-3-oxo-3,4-dihydro-2H-benzo[b][1,4]oxazine-6-carboxamide] was tested, and the IC50 was 100 to 1000 nM. `N#CN1CCC(CNC(=O)c2ccc(-c3ccncc3)cc2)C1` (centres unmarked) [Example 24, N-((1-Cyanopyrrolidin-3-yl)methyl)-4-(pyridin-4-yl)benzamide] showed an IC50 of 100 to 1000 nM. `Cc1ccccc1-c1cc(C(=O)NCC2CCN(C#N)C2)[nH]n1` (centres unmarked) [Example 25, N-((1-Cyanopyrrolidin-3-yl)methyl)-3-(o-tolyl)-1H-pyrazole-5-carboxamide] showed an IC50 of 100 to 1000 nM. Compound `N#CN1CCC(CNC(=O)c2cc(N3CCCC3)ccn2)C1` (centres unmarked) [Example 27, N-((1-Cyanopyrrolidin-3-yl)methyl)-4-(pyrrolidin-1-yl)picolinamide] has an IC50 of 100 to 1000 nM. With `N#CN1CCC(CNC(=O)c2ccc(S(=O)(=O)Nc3ccccc3)cc2)C1` (centres unmarked) [Example 30, N-((1-Cyanopyrrolidin-3-yl)methyl)-4-(N-phenylsulfamoyl)benzamide] the IC50 was 100 to 1000 nM. Work on `COc1ccc(/C=C/C(=O)NCC2CCN(C#N)C2)c(F)c1` (centres unmarked) [Example 32, (E)-N-((1-Cyanopyrrolidin-3-yl)methyl)-3-(2-fluoro-4-methoxyphenyl)acrylamide] yielded an IC50 of 100 to 1000 nM. Work on `N#CN1CCC(CNC(=O)c2cncc(-c3ccc(F)cc3)c2)C1` (centres unmarked) [Example 33, N-((1-Cyanopyrrolidin-3-yl)methyl)-5-(4-fluorophenyl)nicotinamide] yielded an IC50 of 100 to 1000 nM. `N#CN1CC[C@@H](CNC(=O)c2ccc3c(c2)NC(=O)CO3)C1` [Example 34, (S)—N-((1-Cyanopyrrolidin-3-yl)methyl)-3-oxo-3,4-dihydro-2H-benzo[b][1,4]oxazine-6-carboxamide] showed an IC50 of 1000 to 10000 nM. `N#CN1CC[C@H](CNC(=O)c2cn3cc(Cl)ccc3n2)C1` [Example 35, (R)-6-Chloro-N-((1-cyanopyrrolidin-3-yl)methyl)imidazo[1,2-a]pyridine-2-carboxamide] was tested, and the IC50 was 1000 to 10000 nM. Work on `N#CN1CC[C@H](CNC(=O)c2cc3ccccn3n2)C1` [Example 36, (R)—N-((1-Cyanopyrrolidin-3-yl)methyl)pyrazolo[1,5-a]pyridine-2-carboxamide] yielded an IC50 of 1000 to 10000 nM. With `CN(CC1CCN(C#N)C1)C(=O)Cc1ccc(-c2ccccc2)cc1` (centres unmarked) [Example 37, 2-([1,1′-biphenyl]-4-yl)-N-((1-cyanopyrrolidin-3-yl)methyl)-N-methylacetamide] the IC50 was 100 to 1000 nM. Work on `Cn1cc(-c2ccc3nc(C(=O)NCC4CCN(C#N)C4)cn3c2)cn1` (centres unmarked) [Example 39, N-((1-Cyanopyrrolidin-3-yl)methyl)-6-(1-methyl-1H-pyrazol-4-yl)imidazo[1,2-a]pyridine-2-carboxamide] yielded an IC50 of 1000 to 10000 nM. `Cc1cc(C(=O)NCC2CCN(C#N)C2)nn1Cc1ccccc1` (centres unmarked) [Example 40, 1-Benzyl-N-((1-cyanopyrrolidin-3-yl)methyl)-5-methyl-1H-pyrazole-3-carboxamide] gave an IC50 of 1000 to 10000 nM. Work on `N#CN1CCC(CNC(=O)Nc2cccc(Cl)c2)C1` (centres unmarked) [Example 41, 1-(3-Chlorophenyl)-3-((1-cyanopyrrolidin-3-yl)methyl)urea] yielded an IC50 of 100 to 1000 nM. `Cc1ccc(F)c(NC(=O)NCC2CCN(C#N)C2)c1` (centres unmarked) [Example 42, 1-((1-Cyanopyrrolidin-3-yl)methyl)-3-(2-fluoro-5-methylphenyl)urea] gave an IC50 of 100 to 1000 nM. With `N#CN1CCC(CNC(=O)Nc2cccc(Cc3ccccc3)c2)C1` (centres unmarked) [Example 43, 1-(3-Benzylphenyl)-3-((1-cyanopyrrolidin-3-yl)methyl)urea] the IC50 was 100 to 1000 nM. With `N#CN1CCC(CNC(=O)Nc2ccc(Cl)cc2Cl)C1` (centres unmarked) [Example 44, 1-((1-Cyanopyrrolidin-3-yl)methyl)-3-(2,4-dichlorophenyl)urea] the IC50 was 100 to 1000 nM. For `N#CN1CCC(CNC(=O)Nc2ccc(C(F)(F)F)cc2)C1` (centres unmarked) [Example 45, 1-((1-Cyanopyrrolidin-3-yl)methyl)-3-(4-(trifluoromethyl)phenyl)urea], the IC50 was 100 to 1000 nM. Compound `Cc1nc(-c2cccc(S(=O)(=O)N(C)CC3CCN(C#N)C3)c2)cs1` (centres unmarked) [Example 46, N-((1-Cyanopyrrolidin-3-yl)methyl)-N-methyl-3-(2-methylthiazol-4-yl)-benzenesulfonamide] has an IC50 of 100 to 1000 nM. Compound `CN(CC1CCN(C#N)C1)S(=O)(=O)c1ccc(Oc2ccc(C(F)(F)F)cn2)cc1` (centres unmarked) [Example 47, N-((1-Cyanopyrrolidin-3-yl)methyl)-N-methyl-4-((5-(trifluoromethyl)pyridin-2-yl)oxy)benzenesulfonamide] has an IC50 of 100 to 1000 nM. Work on `Cc1oncc1-c1ccc2nc(NC(C)C3CCN(C#N)C3)sc2c1` (centres unmarked) [Example 48, 3-(1-((6-(5-Methylisoxazol-4-yl)benzo[d]thiazol-2-yl)amino)ethyl)pyrrolidine-1-carbonitrile] yielded an IC50 of 100 to 1000 nM. In the case of `CC(Nc1nc2ccc(-c3cn[nH]c3)cc2s1)C1CCN(C#N)C1` (centres unmarked) [Example 49, 3-(1-((6-(1H-Pyrazol-4-yl)benzo[d]thiazol-2-yl)amino)ethyl)pyrrolidine-1-carbonitrile], the IC50 is reported as 100 to 1000 nM. Compound `CC(Nc1cc2ccccc2cn1)C1CCN(C#N)C1` (centres unmarked) [Example 50, 3-(1-(Isoquinolin-3-ylamino)ethyl)pyrrolidine-1-carbonitrile] has an IC50 of 1000 to 10000 nM. `CC(Nc1cc2cc(C#N)ccc2cn1)C1CCN(C#N)C1` (centres unmarked) [Example 51, 3-((1-(1-Cyanopyrrolidin-3-yl)ethyl)amino)isoquinoline-6-carbonitrile] showed an IC50 of 1000 to 10000 nM. `N#CC(Nc1nc2ccccc2s1)C1CCN(C#N)C1` (centres unmarked) [Example 52, 3-((Benzo[d]thiazol-2-ylamino)(cyano)methyl)pyrrolidine-1-carbonitrile] gave an IC50 of 100 to 1000 nM. For `CC(Nc1nc2ccc(C#N)cc2s1)C1CCN(C#N)C1` (centres unmarked) [Example 53, 2-((1-(1-Cyanopyrrolidin-3-yl)ethyl)amino)benzo[d]thiazole-6-carbonitrile], the IC50 was 1000 to 10000 nM. Work on `N#CN1C[C@H]2CN(c3ncc(-c4ccccc4)s3)C(=O)[C@H]2C1` [Example 54, (3aR,6aS)-4-Oxo-5-(5-phenylthiazol-2-yl)hexahydropyrrolo[3,4-c]pyrrole-2(1H)-carbonitrile] yielded an IC50 of 1000 to 10000 nM. With `N#CN1CC[C@H](CNC(=O)c2cc(-c3cccc(Cl)c3)no2)C1` [Example 55, (R)-3-(3-Chlorophenyl)-N-((1-cyanopyrrolidin-3-yl)methyl)isoxazole-5-carboxamide] the IC50 was < 100 nM. Compound `N#CN1CC[C@H](CNC(=O)c2nc3ccccc3[nH]2)C1` [Example 56] has an IC50 of 1000 to 10000 nM. With `N#CN1CC[C@H](CNC(=O)c2cc3ccccc3cn2)C1` [Example 57] the IC50 was 1000 to 10000 nM. Work on `N#CN1CC[C@H](CNC(=O)c2cc(-c3ccccc3)ccn2)C1` [Example 59] yielded an IC50 of 100 to 1000 nM. With `N#CN1CC[C@H](CNC(=O)c2ccc(-c3ccccc3)cn2)C1` [Example 60] the IC50 was 100 to 1000 nM. `N#CN1CC[C@H](CNC(=O)c2cn3ccc(Cl)cc3n2)C1` [Example 65, (R)-7-Chloro-N-((1-cyano-pyrrolidin-3-yl)methyl) imidazo[1,2-a] pyridine-2-carboxamide] was tested, and the IC50 was 1000 to 10000 nM.

Reference: patent US11130748B2, “Compounds” (MISSION THERAPEUTICS LIMITED, priority 2015, dated 2021)
